Source: patent US20250296942A1, “Phosphonate-Based Coordination Complexes and Methods of Preparation and Use Thereof” (University of Puerto Rico, priority 2021, published 2025)

Legend:
[1] = tested on: human osteoblast hFOB 1.19 cell line; assay: AlamarBlue cytotoxicity, 2,2′-BPBPA series, hFOB 1.19; assay type: cell-based
Description: (§1) Cell culture methods. MCF-7 and MDA-MB-231 were incubated using DMEM at 37° C. in 5% CO2. The hFOB 1.19 cell lines were incubated with DMEM: F12 at 34° C. in 5% CO2.
(§2) Cell lines were supplemented using 10% FBS and 1% Pen-Strep. The media was replaced twice per week. Cell passages were carried out at 80% confluency.
(§3) Cell-based assays. Cell lines were seeded in 96 well plates at a density of 5x 10^3 cells/mL and incubated for 24 h before treatment. Cells were treated with 100 μL of 2,2′-BPBPA (0-400 μM), unloaded and loaded nano-Ca@2,2′-BPBPA (6.3-50 μM) for 24, 48, and 72 h.
(§4) Control groups were treated with media (DMEM or DMEM: F12) supplemented with 1% Pen-Strep. Cell viability was determined by employing AlamarBLue@. The media was replaced with 100 μL of 10% AlamarBlue® solution. After 24 h of incubation, the fluorescence was assessed at )max of 560 nm for excitation and 590 nm for emission.
(§5) Cell culture methods. MCF-7 and MDA-MB-231 were incubated using DMEM at 37° C. in 5% CO2. The hFOB 1.19 cell lines were incubated with DMEM: F12 at 34° C. in 5% CO2. Cell lines were supplemented using 10% FBS and 1% Pen-Strep. The media was replaced twice times per week. Cell passages were carried out at 80% confluency.
(§6) Seeding. […]
(§7) AlamarBlue@assay. […] Then, the fluorescence was assessed at 560 nm of excitation and λmax 590 nm of emission. […]

[2] = tested on: human breast cancer MCF-7 cell line; assay: AlamarBlue cytotoxicity, 2,2′-BPBPA series, MCF-7; assay type: cell-based
Description: as §1, §2, §3, §4, §5
Seeding. Cell lines were seeded in 96 well plates at a density of 5×10^3 cells/mL; cells were incubated for 24 h before each treatment.
Treatment. Cell lines were treated with 100 μL of 2,2′-BPBPA (0-400 μM), unloaded and loaded nano-Ca@2,2′-BPBPA (6.3-50 μM). Control groups were treated with media (DMEM or DMEM: F12) supplemented with 1% Pen-Strep. All cell-based assays were conducted for 24, 48, and 72 h of treatment. Experiments were performed in triplicate.
AlamarBlue@assay. To determine the cell viability, the media was removed and replaced with 100 μL of 10% AlamarBlue® solution. The 96 well plates were incubated for 4 h before the measurements. Then, the fluorescence was assessed at 560 nm of excitation and λmax 590 nm of emission. The IC50 curves for MCF-7, MDA-MB-231, and hFOB 1.19 cell lines treated with 2,2′-BPBPA are presented in FIGS. 211A-211C, 212A-212C, and 213A-213C.

[3] = tested on: human breast cancer MDA-MB-231 cell line; assay: AlamarBlue cytotoxicity, 2,2′-BPBPA series, MDA-MB-231; assay type: cell-based; details: 24, 48, 72 h
Description: as §1, §2, §3, §4, §5, §6, §7

[4] = tested on: human osteoblast hFOB 1.19 cell line; assay: AlamarBlue cytotoxicity, BPBPA series, hFOB 1.19; assay type: cell-based; details: for IC50: Homo sapiens, Osteoblast
Description: Cell culture methods. MCF-7, MDA-MB-231, and hFOB 1.19 cell lines were incubated employing DMEM (37° C.) and DMEM: F12 (34° C.) medium, respectively, in a 5% CO2. Cell lines were supplemented using 10% FBS and 1% Pen-Strep and medium exchange was performed twice a week. Cell passages were carried out at 80% confluency.
Cell-based assays. Cell lines were seeded in 96 well plates at a density of 5×10^3 cells/mL, cells were incubated for 24 h before treatment. Both cell lines were treated with 100 μL of BPBPA (0-400 μM), LET (0-200 μM), unloaded and loaded nano-Ca@BPBPA (0-50 μM). All cell-based assays were performed for 24, 48, and 72 h of treatment. Control groups were treated with media (DMEM or DMEM: F12) supplemented with 1% Pen-Strep. Then, the media was removed and replaced with 100 μL of 10% AlamarBlue® solution. The 96 well plates were incubated for 4 h before measurements. Then, the fluorescence was assessed at 560 nm of excitation and λmax 590 nm of emission. The cell viability (%) was evaluated by contrasting the percentage of live cells of the control groups with the cells treated with BPBPA, LET, unloaded and loaded nano-Ca@BPBPA. The half-maximal inhibitory concentration (IC50) was determined for BPBPA and letrozole employing the dose-response curves (% cell live vs. concentration). The relative cell live (% RCL) was assessed for the unloaded and loaded nano-Ca@BPBPA, utilizing LET as a control group. The IC50 and % RCL were plotted using the GraphPad Prism software vs. 9.3.0.
The cytotoxicity of BPBPA (control), LET (control), nano-Ca@BPBPA (control), and drug-loaded nano-Ca@BPBPA (experimental) was investigated employing the human breast cancer, MCF-7 and MDA-MB-231, and the human osteoblast, hFOB 1.19, cell lines. The human MCF-7 cell line represents an ER-positive breast cancer model with estrogen, progesterone, and glucocorticoid receptors.^1 While, the human MDA-MB-231 cells correspond to a model of ER-negative breast cancer. Both selected cancer cell lines can be implicated in the development and progress of bone metastases in patients.^40,41 The human fetal hFOB 1.19 cells represent a homogeneous osteoblast-like (non-cancerous) model commonly employed to assess osteoblast differentiation.^42 The cytotoxicity of these materials was evaluated by determining the IC50 and % RCL. […] Similar results were found for MDA-MB-231 and hFOB 1.19 cell lines treated with LET (IC50 >200 μM) at the same time points (Supporting Information).
Cell culture methods. MCF-7 and MDA-MB-231 were incubated employing DMEM media at 37° C. in 5% CO2. The hFOB 1.19 cell lines were incubated using DMEM: F12 at 34° C. in 5% CO2. […]
AlamarBlue@assay. […] Then, the fluorescence was assessed at 560 nm of excitation and λmax 590 nm of emission.

[5] = FaSSGF pH 1.60

Compound: O=P(O)(O)c1ccc(-c2ccc(P(=O)(O)O)cn2)nc1 [2,2′-BPBPA, 2,2′-bipyridine-5,5′-bisphosphonic acid]
- IC50 ([1]; Homo sapiens, Osteoblast, 72 h): > 188 µM
- IC50 ([2]; Homo sapiens, MCF7, 72 h): 134 ± 2 µM
- IC50 [3]: > 200 µM

Compound: N#Cc1ccc(C(c2ccc(C#N)cc2)n2cncn2)cc1 [LET, letrozole]
- % RCL ([1]; 6.3-50 μM, 24, 48, 72 h): ~99%
- % RCL ([4]; 12.5 μM, 72 h): 100±1%
- IC50 ([4]; 24 h): > 200 µM
- IC50 ([4]; 48 h): > 200 µM
- IC50 ([4]; 72 h): > 200 µM
- % RCL ([2]; 6.3 μM, 24 h): about 100±2%
- % RCL ([2]; 6.3 μM, 48 h): ~79 ±1%
- % RCL ([2]; 6.3 μM, 72 h): ~74±3%
- % RCL ([2]; 12.5 μM, 24 h): 100±2%
- % RCL ([2]; 12.5 μM, 48 h): 71±3%
- % RCL ([2]; 12.5 μM, 72 h): 68±2%
- % RCL ([2]; 25 μM, 24 h): 100±1%
- % RCL ([2]; 25 μM, 72 h): 46±2%
- % RCL ([2]; 50 μM, 24 h): 99±1%
- % RCL ([2]; 50 μM, 72 h): 40±1%

Compound: O=P(O)(O)C(O)(Cc1cccnc1)P(=O)(O)O [RISE, Monosodium risedronate hemipentahydrate]
- time to reach maximum dissolution [5]: 1 min
